{"source": "patent US20220296600A1", "about": "“USE OF A COMPOSITION COMPRISING 3,6,7-TRIMETHYLLUMAZINE FOR PREVENTING, AMELIORATING OR TREATING MMP-9 ASSOCIATED CONDITIONS AND INFLAMMATION” (COMVITA LIMITED, priority 2019, published 2022)", "key": {"recombinant MMP-9 enzyme [1]": {"target": "T1, recombinant MMP-9 enzyme (Homo sapiens, UniProt P14780)", "T1 construct": "purchased Abcam (Melbourne, Australia)", "T1 sequence (P14780 94-707)": "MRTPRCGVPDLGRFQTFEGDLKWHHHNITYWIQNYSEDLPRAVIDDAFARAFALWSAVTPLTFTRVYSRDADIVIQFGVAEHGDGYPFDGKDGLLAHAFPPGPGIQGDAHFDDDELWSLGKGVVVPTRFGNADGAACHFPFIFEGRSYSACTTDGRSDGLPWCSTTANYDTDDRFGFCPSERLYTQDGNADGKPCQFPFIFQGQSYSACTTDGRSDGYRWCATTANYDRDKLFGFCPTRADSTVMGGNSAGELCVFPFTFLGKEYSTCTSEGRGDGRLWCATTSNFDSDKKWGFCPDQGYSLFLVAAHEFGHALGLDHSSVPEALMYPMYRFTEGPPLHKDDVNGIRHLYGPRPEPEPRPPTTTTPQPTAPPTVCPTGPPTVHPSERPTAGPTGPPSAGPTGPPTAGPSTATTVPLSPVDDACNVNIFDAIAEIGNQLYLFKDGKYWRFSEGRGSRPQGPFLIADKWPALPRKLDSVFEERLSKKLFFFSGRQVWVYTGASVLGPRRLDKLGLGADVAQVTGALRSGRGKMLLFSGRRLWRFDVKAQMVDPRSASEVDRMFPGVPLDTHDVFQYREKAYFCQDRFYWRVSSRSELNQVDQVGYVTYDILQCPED", "assay": "MMP-9 inhibitor screening assay (fluorometric)", "format": "biochemical", "method": "The MMP-9 inhibitor screening assay (fluorometric) kits were purchased from Abcam (Melbourne, Australia). The fluorometric kit contains the recombinant MMP-9 enzyme, MMP inhibitor NNGH (N-isobutyl-N-[4-methoxyphenylsulfonyl]glycyl hydroxamic acid), MMP fluorogenic substrate solubilised in DMSO, the fluorometric assay buffer and 96-well clear microplate.\nInhibitory activity on MMP-9 was assessed using the commercial MMP-9 inhibitor screening assay kit. MMP-9 activity was expressed as a change in fluorescence intensity measured using SpectraMax iD3 multi-mode microplate reader (Molecular Devices, San Jose, USA).\nThe assay employs a FRET-tagged (fluorescence resonance energy transfer) substrate, which can be hydrolysed by MMP-9 at a specific site (Abcam, 2018). The cleavage of the FRET substrate releases the quenched fluorescent Mca (7- methoxycoumarin-4-yl)-acetyl group (Abcam, 2018). The kit employs a quenched fluorogenic substrate Mca-Pro-Leu-Gly-Leu-Dpa-Ala-Arg-NH2, where the Mca fluorescence is quenched by Dpa until cleavage by MMPs. The amount of fluorescent product yielded by MMP-9 can be detected fluorometrically and it is proportional to the enzyme activity. Fluorescence were measured at ex320 nm-em395 nm to minimise fluorescence interference from 3,6,7-trimethyllumazine at ex330 nm-em470 nm. Assays were performed on a 96-well clear microplate included in the kit with a final reaction volume of 100 µL. Before adding the substrate, MMP-9 enzymes were incubated with testing samples and inhibitor control for 60 min at 37° C. The fluorescent substrate was added into each well prior to the assay to initiate the reaction. The assay was allowed to run for 20 min and the temperature in the reaction chamber was set to 37° C.\nTesting samples were prepared comprising 3,6,7-trimethyllumazine prepared as outlined above.\nA positive control was included with only MMP-9 and the fluorescent substrate, used as a reference to calculate the percentage inhibition. A broad spectrum MMP inhibitor NNGH was included as the negative control. […]"}, "recombinant MMP-9 enzyme [2]": {"target": "T1, recombinant MMP-9 enzyme", "assay": "MMP-9 inhibitor screening assay (colorimetric)", "format": "biochemical", "conditions": "read-out: percentage inhibition of MMP-9", "excerpt": "The MMP-9 inhibitor screening assay (colorimetric) kits were purchased from Abcam (Melbourne, Australia). The kit contains the recombinant MMP-9 enzyme, MMP inhibitor NNGH, MMP chromogenic substrate, the colorimetric assay buffer and 96-well clear microplate.\nThe colorimetric kit uses a thiopeptide as a chromogenic substrate (Ac-PLG- [2-mercapto-4-methyl-pentanoyl]-LG-[…]), which can be hydrolysed by MMPs to produce a sulfhydryl group. This intermediate product further reacts with DTNB [5,5′-dithiobis(2-nitrobenzoic acid), Ellman's reagent] to form 2-nitro-5-thiobenzoic acid, which can be detected by absorbance at 412 nm. The change in absorbance was measured using the SpectraMax iD3 multi-mode microplate reader (Molecular Devices, San Jose, USA). The assays are performed on a convenient 96-wells microplate with a final reaction volume of 100 μL. Prior to the assay, all testing samples and inhibitor controls were incubated with MMP-9 for 60 min at 37° C. […] The absorbance was measured at 1 min intervals during the first 20 min, then 10 min intervals till the end of assay.\nRecombinant MMP-9 and the chromogenic substrate were used as the positive control to represent 100% enzyme activity. […] A range of 3,6,7-trimethyllumazine concentrations were diluted with the colorimetric assay buffer to measure the absorbance of the reaction product."}, "active MMP-9": {"test_system": "active MMP-9", "assay": "Gelatin gel zymography, active MMP-9 band", "format": "biochemical", "conditions": "active MMP-9 band (~37 kDa); supplemented developing buffer", "method": "(§1) Novex™ 10% Zymogram Plus (Gelatin) Protein Gels (15 wells) were purchased from Thermo Fisher Scientific Inc. (Auckland, New Zealand). All chemicals required for the zymogram analysis were also purchased from Thermo Fisher, these include Novex™ Sharp Pre-stained Protein Standard, Novex Tris-Glycine SDS sample buffer, Novex Tris-Glycine SDS running buffer, Novex Zymogram renaturing buffer and Novex Zymogram developing buffer. […] Gelatin gel zymography was performed as an independent technique to confirm the inhibition of MMP-9 from 3,6,7-trimethyllumazine. This technique uses a non-reducing SDS-PAGE (sodium dodecyl sulfate polyacrylamide gel electrophoresis) gel embedded with gelatin. Proteins are migrated and separated during electrophoresis. The SDS is removed after electrophoresis and the gel is then incubated with essential cofactors required for enzymatic activity. The embedded gelatin can be digested by MMP-9, resulting in clear bands on a dark blue background after staining with Coomassie blue dyes. The gelatinase activity is represented by band densitometry, which can be assessed with image analysis software. […]\n(§2) After incubation, the gelatin gel was rinsed with water for three times (5 min each) under gentle agitation. […] MMP-9 activities were analysed using densitometry on ImageJ Version 1.52a."}, "[3]": {"test_system": "inactive MMP-9 (pro-MMP-9)", "assay": "Gelatin gel zymography, inactive (pro-)MMP-9 band", "format": "biochemical", "conditions": "inactive MMP-9 band; supplemented developing buffer", "method": "as §1, §2"}, "[4]": {"assay": "Simulated gastrointestinal digestion (SGF then SIF), 3,6,7-trimethyllumazine retention by HPLC", "format": "in vitro ADME", "conditions": "from four Manuka honey samples; 2 h gastric plus 4 h intestinal digestion", "method": "The simulated gastrointestinal digestion was carried out using a static model. The simulated gastric fluid (SGF) and the simulated intestinal fluid (SIF) were prepared in accordance with a global consensus protocol (Minekus et al 2014). The SGF has a pH 3 to mimic the fed-state of the stomach. When mixed with Manuka honey (or a honey solution), the final mixture contains 2000 U/mL of pepsin. The SIF has pH 7 to mimic the fed-state of the small intestine, containing 2 mg/mL of pancreatin (8 x USP, or based on a protease activity of 200 U/mL) and 20 mM of porcine bile extract before use.\nIn the simulated gastric digestion, 2 g of Manuka honey was incubated in 2 mL of SGF at 37° C. under 95 rpm shaking for a period of 2 h (triplicates). At selected time points (0, 30, 60 and 120 min), a predetermined volume (0.1 mL) of the mixture was withdrawn for 3,6,7-trimethyllumazine analysis. […]\nThe gastric and intestinal digesta for 3,6,7-trimethyllumazine analysis was treated to remove insoluble fractions (e.g. pancreatin) before HPLC analysis. […] The amount of 3,6,7-trimethyllumazine at different time points was analysed using a reverse-phase HPLC system, which has been previously used to analyse 3,6,7-trimethyllumazine and leptosperin as reported in the literature (Bin Lin et al 2017). […] The signal of 3,6,7-trimethyllumazine was detected at 320 nm."}, "[5]": {"test_system": "MMP-9 secretion in differentiated THP-1 cells", "assay": "LPS induced MMP-9 secretion in differentiated THP-1 cells (ELISA)", "format": "cell-based, human", "conditions": "LPS 1 μg/mL; for reduction of MMP-9 secretion: 24 hours", "method": "THP-1 cells (ATCC, ATCTIB202) were grown in RPMI-1640 (Gibco, 11875093)+0.05 mM 2-mercaptoethanol+10% fetal calf serum (FCS)+1% pen-strep. For experiments, the cells were cultured in RPMI-1640 medium with 10% fetal bovine serum (FBS) only.\nTHP-1 monocyte cells were seeded at a density of 2.5×10^5 cells/ml in 96-well plates and differentiated into macrophages using 10 ng/ml of phorbol 12-myristate 13-acetate (PMA) (Bergin et al) (Sigma, P1585-1MG, Lot #SLBX889, 100% purity) for 72 hours. PMA media was then removed from the differentiated THP-1 cells, the cells were then washed once in RPMI-1640 media and then left to rest for ˜5 hours.\nThe differentiated THP-1 cells were stimulated with LPS from E. coli […] (Sigma, L6529; Lot#037K4068). LPS tested at a concentration of 1 μg/ml (Kong et al). The cells were incubated with LPS alone or in combination with 3,6,7-trimethyllumazine (received from University of Auckland and diluted in RPMI-1640 at a stock concentration of 1 mg/ml, stock was stored in fridge for 2 days before use) at a concentration range between 2.5-40 μg/ml. 6 μM Azithromycin (Sigma, Cat #75199-25MG, Lot#069M4826V) was used as a positive control (Vandooren et al). The cells were then incubated with the different treatments for 24 hours (Kong et al). After 24 hours, the cell culture media was collected and measured for MMP-9 concentration using MMP-9 ELISA (R&D systems, RDSDY91105 lot #P239459 and DY008 Lot #P239900). The cells were then incubated with WST-1 for cell viability.\nThis human MMP-9 assay measures the 92 kDa Pro-MMP-9 and the 82 kDa active MMP-9. […] This assay also recognizes human MMP-9 when complexed to Lipocalin-2/NGAL, isolated from human source material.\nIn order to better capture the variability, each treatment was done at least in triplicate in each plate (2 plates). Media from the triplicate wells were pooled and analysed in duplicates for the MMP-9 ELISA. A student's test was performed in excel between media with LPS and the different treatments."}, "[6]": {"test_system": "differentiated THP-1 cells", "assay": "Cell viability (WST-1)", "format": "cell-based", "conditions": "40 μg/mL", "method": "To measure cytotoxicity of 3,6,7-trimethyllumazine at different doses, 2-(4-lodophenyl)-3-(4-nitrophenyl)-5-(2,4-disulfophenyl)-2H-tetrazolium, monosodium salt (WST-1) (Roche, 11644807001, Lot #45255800) was used. WST-1 is a cell proliferation reagent for measurement of cellular proliferation, viability, and cytotoxicity using a colorimetric assay (Gosert (2011); Peskin (2000)).\nAfter incubation, a portion of the culture media was taken and stored for MMP-9 secretion testing using ELISA. The remaining media in the plates was then removed and 100 μl of WST-1 in RPMI-1640 media (1:10 dilution) was added to each cell well and incubated at 37° C. for a further 4 hours. The plates were then read using a plate reader at wavelength of 450 nm. Cytotoxicity was calculated as follows: • [WST-1 score for each sample/WST-1 score for the control]×100 • A WST-1 score below 80% will be considered cytotoxic."}}, "data": [{"compound": "Cc1nc2[nH]c(=O)n(C)c(=O)c2nc1C", "note": "[3,6,7-trimethyllumazine]", "values": [{"measurement": "inhibition at 2.5 µg/mL", "setting": "recombinant MMP-9 enzyme [1]; 2.5 μg/ml, not significant (p>0.05), read-out: percentage inhibition of MMP-9 activity", "result": 12, "unit": "%"}, {"measurement": "IC50", "setting": "recombinant MMP-9 enzyme [1]; fluorometric, second-order polynomial fit of % inhibition vs concentration", "result": 55.8, "unit": "µM"}, {"measurement": "inhibition at 40 µg/mL", "setting": "recombinant MMP-9 enzyme [2]; 40 μg/ml", "result": 10, "unit": "%"}, {"measurement": "inhibition at 80 µg/mL", "setting": "recombinant MMP-9 enzyme [2]; 80 μg/ml", "result": 10, "unit": "%"}, {"measurement": "percentage inhibition of gelatinase activity (densitometry)", "setting": "active MMP-9", "result": 31, "unit": "%"}, {"measurement": "percentage inhibition of gelatinase activity (densitometry)", "setting": "[3]", "result": 17, "unit": "%"}, {"measurement": "initial 3,6,7-trimethyllumazine amount recovered in the digesta", "setting": "[4]", "result": "~100", "unit": "%"}, {"measurement": "reduction of MMP-9 secretion", "setting": "[5]; 30 μg/mL", "result": 23, "unit": "%"}, {"measurement": "reduction of MMP-9 secretion", "setting": "[5]; 40 μg/mL", "result": 38, "unit": "%"}, {"measurement": "WST-1 score (cell viability; below 80% considered cytotoxic)", "setting": "[6]", "result": 79.8, "unit": "%"}]}, {"compound": "CC[C@H]1OC(=O)[C@H](C)[C@@H](O[C@H]2C[C@@](C)(OC)[C@@H](O)[C@H](C)O2)[C@H](C)[C@@H](O[C@@H]2O[C@H](C)C[C@H](N(C)C)[C@H]2O)[C@](C)(O)C[C@@H](C)CN(C)[C@H](C)[C@@H](O)[C@]1(C)O", "note": "[Azithromycin, reference compound]", "values": [{"measurement": "effect on MMP-9 secretion", "setting": "[5]; 6 μM positive control, absolute values, P=0.00", "result": "inhibits mmp-9 secretion"}]}, {"compound": "COc1ccc(S(=O)(=O)N(CC(=O)NO)CC(C)C)cc1", "note": "[NNGH, N-isobutyl-N-[4-methoxyphenylsulfonyl]glycyl hydroxamic acid, reference compound]", "values": [{"measurement": "change in fluorescence intensity (MMP-9 activity)", "setting": "recombinant MMP-9 enzyme [1]; NNGH inhibitor control", "result": "almost no change in fluorescence"}]}]}
